Results: patent publication US20250120399A1, “METHODS AND COMPOSITIONS FOR ALTERING METABOLITES IN VITIS SPP. AND PREVENTING PESTS AND PATHOGENS” (Impello Biosciences, Inc., priority 2022, published 2025)
Several values for one entry are separate records, joined by “and”; a condition that tells them apart may be missing. Equal values may be shown once.

How the values were obtained:
[1] = system: Grapevine (Malbec variety); assay: Leaf sap Brix by refractometer, Malbec field trial (Example 1); assay type: in vivo, Vitis vinifera; parameters: % BRIX, Plant #1 / % BRIX, Plant #2 / % BRIX, Plant #3: reference not given here; conditions: for Brix, individual leaf: leaf no. 1-25, one line per leaf; for AVG Brix, Plant #1 / AVG Brix, Plant #2 / AVG Brix, Plant #3: average of 25 leaves; for Brix, individual leaves, Plant #1 / Brix, individual leaves, Plant #2 / Brix, individual leaves, Plant #3: leaf sap; for Brix, individual leaves, Plant #1: MDJ treated Plant #1, leaf no. 1-25; for Brix, individual leaves, Plant #2: MDJ treated Plant #2, leaf no. 1-25; for Brix, individual leaves, Plant #3: MDJ treated Plant #3, leaf no. 1-25
Experimental: An eliciting composition and methods of use to alter metabolite production were tested on 6 acres of a Malbec variety planted in 1999 in Napa Valley, California. Plants were spaced 5′×10′ (900 vines per acre) and grouped into randomized blocks of 900 vines per group, with six replicates covering three acres for the treatment group, and six replicates covering three acres for the control group. The treatment group received two applications of 32 oz of MDJ applied at a rate of 100 gallons per acre (2.5 mM), once prior to veraison on Aug. 9, 2021 and again when 5-10% of berries were starting to blush (veraison) using a ground spray rig (backpack sprayer). From within each replicate, three plants were selected at random, and 25 leaves from each plant were randomly selected for analysis. The internal sap of the leaves was tested using a refractometer on the days shown below in Table 4 and FIG. 1. Data from each replicate was averaged (25 leaves from each plant, 3 plants).

Botrytis cinerea = Botrytis cinerea disease score (0-5) on inoculated hemp plants (Example 7); assay type: in vivo; conditions: at harvest, 8 replicates
Experimental: A Botrytis cinerea isolate was cultured onto potato-dextrose agar (PDA) and re-isolated by taking a mycelial plug from the edge of actively growing cultures every 2-3 weeks to maintain active growing culture. It was maintained at 20° C. under continuous light (˜[…] m^−2 s^−1). An inoculum was prepared by flooding a full grown B. cinerea PDA plate with DI water and 0.1% Tween-20 to create a suspension of fungal spores. Spore count was quantified.
In the first inoculation, a suspension of 1.2×10^4 spores of B. cinerea/mL was created, and 1.5 mL was applied to the top cola/underdeveloped inflorescence of each hemp plant in the first week of flowering. In the second inoculation, a suspension of 1.5×10^5 spores of B. cinerea/mL was created, and sucrose was added to 1% concentration, and the plants were sprayed until drip using a backpack sprayer.
Inoculated plants were placed in a controlled growth environment with a constant temperature of 20-25° C. and 50-70% relative humidity. (See Zhang et al., “Infection Assays of Tomato and Apple Fruit by the Fungal Pathogen Botrytis cinerea,” bio-protocol 2014; 4 (23): 1-4. See also, Bulger et al. Phytopathology 1987; 77 (8): 1225-1230 and Garfinkel, Plant Disease 2020; 104 (7): 2026.)
Treatments comprising 1 mM or 5 mM jasmonate (MDJ) were applied alone or alongside a biological (Continuum™). […]

[2] = Malbec, 2.5 mM MDJ, average of all replicate groups sampled
[3] = Replicate 1 sampled on Aug. 15, 2021, MDJ treated Plant #1
[4] = Replicate 1 sampled on Aug. 15, 2021, MDJ treated Plant #2
[5] = Replicate 1 sampled on Aug. 15, 2021, MDJ treated Plant #3
[6] = Replicate 2 sampled on Sep. 22, 2021, MDJ treated Plant #1
[7] = Replicate 2 sampled on Sep. 22, 2021, MDJ treated Plant #2
[8] = Replicate 2 sampled on Sep. 22, 2021, MDJ treated Plant #3
[9] = Replicate 3 sampled on Sep. 30, 2021, MDJ treated Plant #1
[10] = Replicate 3 sampled on Sep. 30, 2021, MDJ treated Plant #2
[11] = Replicate 3 sampled on Sep. 30, 2021, MDJ treated Plant #3
[12] = Replicate 4, Oct. 5, 2021, MDJ treated Plant #1
[13] = Replicate 4, Oct. 5, 2021, MDJ treated Plant #2
[14] = Replicate 4, Oct. 5, 2021, MDJ treated Plant #3
[15] = Replicate 5, Oct. 10, 2021, MDJ treated Plant #1
[16] = Replicate 5, Oct. 10, 2021, MDJ treated Plant #2
[17] = Replicate 5, Oct. 10, 2021, MDJ treated Plant #3
[18] = Replicate 6, Oct. 30, 2021, MDJ treated Plant #1
[19] = Replicate 6, Oct. 30, 2021, MDJ treated Plant #2
[20] = Replicate 6, Oct. 30, 2021, MDJ treated Plant #3
[21] = Replicate 4 sampled on Oct. 5, 2021
[22] = Replicate 5 sampled on Oct. 10, 2021
[23] = Replicate 6 sampled on Oct. 30, 2021

Compound: CCCCCC1C(=O)CCC1CC(=O)OC (stereo not shown) [MDJ, methyl dihydrojasmonate]
- Brix, individual leaf ([1]; Malbec, 2.5 mM MDJ, Replicate 1 sampled on Aug. 15, 2021, MDJ treated Plant #1): 21.0 and 20.0 (2×) and 19.0 (2×) and 19.8 (3×) and 19.5 (3×) and 18.7 (2×) and 19.4 (2×) and 20.5 (2×) and 18.9 (5×) and 18.4 and 19.9 (2×)
- Brix, individual leaf ([1]; Malbec, 2.5 mM MDJ, Replicate 1 sampled on Aug. 15, 2021, MDJ treated Plant #2): 18.8 and 22.1 and 19.6 and 18.7 and 18.9 (2×) and 19.7 (2×) and 19.0 (2×) and 21.0 (2×) and 20.1 and 19.2 (2×) and 21.1 and 21.8 and 19.1 (2×) and 18.3 and 18.0 and 18.6 and 22.8 and 19.5 and 19.3
- Brix, individual leaf ([1]; Malbec, 2.5 mM MDJ, Replicate 1 sampled on Aug. 15, 2021, MDJ treated Plant #3): 19.1 and 19.7 (2×) and 19.0 (2×) and 21.0 and 21.8 (2×) and 19.2 (2×) and 20.0 and 19.10 and 19.00 (2×) and 19.30 (2×) and 19.60 and 19.40 (2×) and 18.80 and 18.90 (2×) and 19.6 and 18.3 and 18.9
- Brix, individual leaf ([1]; Malbec, 2.5 mM MDJ, Replicate 2 sampled on Sep. 22, 2021, MDJ treated Plant #1): 23.9 and 26.3 and 23.4 and 26.8 and 24.3 and 23.1 and 25.0 and 22.9
- Brix, individual leaf ([1]; Malbec, 2.5 mM MDJ, Replicate 2 sampled on Sep. 22, 2021, MDJ treated Plant #2): 26.5 and 25.5 and 24.8 and 24.9 and 26.7 and 23.8 and 24.0 and 25.0
- Brix, individual leaf ([1]; Malbec, 2.5 mM MDJ, Replicate 2 sampled on Sep. 22, 2021, MDJ treated Plant #3): 25.00 (2×) and 19.90 (2×) and 22.40 and 23.80 and 19.30 and 24.60 and 24.50
- MDJ TREATED averages, BRIX METRIC Juice-SAP [1, 2]: 26.1
- Percent increase of Brix, MDJ treated vs control [1, 2]: 44.5%
- Percent increase of Brix, MDJ treated vs control ([1]; Malbec, 2.5 mM MDJ, replicate group 2, 22-Sep): 59.4%
- Percent increase of Brix, MDJ treated vs control ([1]; Malbec, 2.5 mM MDJ, replicate group 3, 30-Sep): 93.3%
- Percent increase of Brix, MDJ treated vs control ([1]; Malbec, 2.5 mM MDJ, replicate group 4, 5-Oct): 46.3%
- Percent increase of Brix, MDJ treated vs control ([1]; Malbec, 2.5 mM MDJ, replicate group 5, 10-Oct): 25%
- Percent increase of Brix, MDJ treated vs control ([1]; Malbec, 2.5 mM MDJ, replicate group 6, 30-Oct): 62.5%
- MDJ TREATED averages, BRIX METRIC Juice-SAP ([1]; Malbec, two applications of 32 oz MDJ at 100 gal/acre (2.5 mM), replicate group 1, 15-Aug): 19.6
- MDJ TREATED averages, BRIX METRIC Juice-SAP ([1]; Malbec, two applications of 32 oz MDJ at 100 gal/acre (2.5 mM), replicate group 2, 22-Sep): 24.4
- MDJ TREATED averages, BRIX METRIC Juice-SAP ([1]; Malbec, two applications of 32 oz MDJ at 100 gal/acre (2.5 mM), replicate group 3, 30-Sep): 29.0
- MDJ TREATED averages, BRIX METRIC Juice-SAP ([1]; Malbec, two applications of 32 oz MDJ at 100 gal/acre (2.5 mM), replicate group 4, 5-Oct): 30.0
- MDJ TREATED averages, BRIX METRIC Juice-SAP ([1]; Malbec, two applications of 32 oz MDJ at 100 gal/acre (2.5 mM), replicate group 5, 10-Oct): 27.5
- MDJ TREATED averages, BRIX METRIC Juice-SAP ([1]; Malbec, two applications of 32 oz MDJ at 100 gal/acre (2.5 mM), replicate group 6, 30-Oct): 26.0
- Plant Brix vs control ([1]; Malbec, two applications of MDJ (2.5 mM)): increase in plant Brix
- % BRIX [1, 3]: 77.9%
- AVG Brix of 25 leaves [1, 3]: 19.5
- % BRIX [1, 4]: 78.8%
- AVG Brix of 25 leaves [1, 4]: 19.7
- % BRIX [1, 5]: 77.9%
- AVG Brix of 25 leaves [1, 5]: 19.5
- % BRIX [1, 6]: 99.5%
- AVG Brix of 25 leaves [1, 6]: 24.9
- % BRIX [1, 7]: 101.0%
- AVG Brix of 25 leaves [1, 7]: 25.3
- % BRIX [1, 8]: 91.8%
- AVG Brix of 25 leaves [1, 8]: 23.0
- % BRIX [1, 9]: 111.9%
- AVG Brix of 25 leaves [1, 9]: 28.0
- % BRIX [1, 10]: 117.9%
- AVG Brix of 25 leaves [1, 10]: 29.5
- % BRIX [1, 11]: 117.9%
- AVG Brix of 25 leaves [1, 11]: 29.5
- % BRIX, Plant #1 [1, 12]: 119.5%
- % BRIX, Plant #2 [1, 13]: 119.2%
- % BRIX, Plant #3 [1, 14]: 120.8%
- % BRIX, Plant #1 [1, 15]: 111.4%
- % BRIX, Plant #2 [1, 16]: 111.4%
- % BRIX, Plant #3 [1, 17]: 107.3%
- % BRIX, Plant #1 [1, 18]: 99.2%
- % BRIX, Plant #2 [1, 19]: 110.1%
- % BRIX, Plant #3 [1, 20]: 103.2%
- AVG Brix, Plant #1 [1, 12]: 29.9
- AVG Brix, Plant #2 [1, 13]: 29.8
- AVG Brix, Plant #3 [1, 14]: 30.2
- AVG Brix, Plant #1 [1, 15]: 27.9
- AVG Brix, Plant #2 [1, 16]: 27.8
- AVG Brix, Plant #3 [1, 17]: 26.8
- AVG Brix, Plant #1 [1, 18]: 24.8
- AVG Brix, Plant #2 [1, 19]: 27.5
- AVG Brix, Plant #3 [1, 20]: 25.8
- Brix, individual leaves, Plant #1 ([1]; Replicate 4 sampled on Oct. 5, 2021, two applications of 32 oz MDJ at 100 gal/acre (2.5 mM)): 30.6 and 29.8 (2×) and 29.0 and 29.5 (6×) and 32.3 and 28.7 and 28.9 (3×) and 29.7 (2×) and 28.8 and 30.0 and 30.4 and 33.3 and 29.9 (2×) and 31.8 and 29.6
- Brix, individual leaves, Plant #2 [1, 21]: 29.3 (2×) and 28.0 and 26.9 and 28.5 and 29.9 (2×) and 29.8 (3×) and 30.1 and 28.9 (2×) and 29.4 and 28.3 and 33.3 and 33.0 and 32.9 and 32.5 and 28.8 and 30.4 and 29.5 (2×) and 29.6 and 28.7
- Brix, individual leaves, Plant #3 [1, 21]: 31.9 and 29.8 (2×) and 29.2 and 29.3 and 29.9 (4×) and 28.5 and 30.4 and 29.5 (2×) and 31.0 and 32.5 and 32.9 and 29.0 and 28.7 and 28.8 and 30.1 and 30.3 and 29.6 and 33.0 and 32.8 and 28.9
- Brix, individual leaves, Plant #1 [1, 22]: 28.7 and 26.1 and 26.2 and 27.2 and 27.7 and 27.6 (2×) and 26.4 (2×) and 28.2 and 28.8 (3×) and 25.8 and 28.5 and 26.0 and 26.9 and 29.5 (2×) and 27.4 and 32.0 and 23.8 and 29.9 and 30.5 and 28.0
- Brix, individual leaves, Plant #2 [1, 22]: 28.5 (2×) and 27.5 (2×) and 29.1 and 26.8 and 26.4 and 27.8 and 29.9 and 28.7 (2×) and 29.4 and 28.3 and 29.5 and 28.6 and 25.0 and 27.6 and 25.9 and 29.8 and 28.4 and 28.0 and 26.0 and 26.1 and 27.2 and 27.0
- Brix, individual leaves, Plant #3 [1, 22]: 26.8 (3×) and 24.5 and 26.3 (2×) and 25.5 (3×) and 25.3 and 28.5 (4×) and 26.7 and 25.8 and 27.0 and 28.7 and 26.9 and 29.8 and 27.5 (2×) and 26.0 and 26.5 and 24.8
- Brix, individual leaves, Plant #1 [1, 23]: 23.4 and 23.8 (2×) and 24.0 (4×) and 26.0 (2×) and 25.0 (3×) and 25.1 and 26.6 (2×) and 25.6 and 24.5 (2×) and 24.8 (2×) and 24.7 and 23.9 and 22.8 and 25.5 and 26.5
- Brix, individual leaves, Plant #2 [1, 23]: 28.7 (2×) and 24.5 and 24.1 and 26.0 (2×) and 28.0 (3×) and 27.1 and 26.4 and 29.1 and 25.5 and 28.5 (2×) and 26.9 and 29.8 (2×) and 29.9 and 27.3 (2×) and 24.9 and 26.6 and 29.5 and 29.0
- Brix, individual leaves, Plant #3 [1, 23]: 25.0 (2×) and 23.1 and 22.9 (2×) and 28.1 and 25.8 and 26.9 and 25.5 and 25.6 (2×) and 26.2 and 23.9 (2×) and 28.8 and 26.3 and 27.2 and 27.3 and 26.1 and 24.6 and 25.7 and 29.9 and 28.4 and 25.4 and 24.9
- Average Disease Score (0-5) (Botrytis cinerea; condition B, 1 mM MDJ foliar spray): 2.625
- Average Disease Score (0-5) (Botrytis cinerea; condition C, 5 mM MDJ foliar spray): 2.250
